Data: patent publication US20240109865A1, “INDAZOLE COMPOUNDS AS KINASE INHIBITORS” (TYRA BIOSCIENCES, INC., priority 2020, published 2024)

What was measured:
Assay in all cases: Kinase assay, binding constants (Kd), kinase-tagged T7 phage, qPCR
[1] = target: FGFR1 (Homo sapiens (Human), UniProt P11362)
Summary of the method: (§1)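 Kinase-tagged T7 phage (grown in BL21-derived E. coli) competed with test compound for immobilized biotinylated ligand on streptavidin beads. Kds came from an 11-point 3-fold dilution series at 0.9% final DMSO. Bound kinase was eluted with non-biotinylated ligand and quantified by qPCR, with Hill slope fixed at −1.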

[2] = target: FGFR2 (Homo sapiens (Human), UniProt P21802)
Summary of the method: as §1

[3] = target: FGFR3 (Homo sapiens (Human), UniProt P22607)
Summary of the method: as §1

[4] = target: FGFR3 (V555M) (Homo sapiens (Human), UniProt P22607, V555M); settings: V555M mutant
Summary of the method: as §1

[5] = target: FGFR4 (Homo sapiens (Human), UniProt P22455)
Summary of the method: as §1

Chain of FGFR4 (P22455 22-802): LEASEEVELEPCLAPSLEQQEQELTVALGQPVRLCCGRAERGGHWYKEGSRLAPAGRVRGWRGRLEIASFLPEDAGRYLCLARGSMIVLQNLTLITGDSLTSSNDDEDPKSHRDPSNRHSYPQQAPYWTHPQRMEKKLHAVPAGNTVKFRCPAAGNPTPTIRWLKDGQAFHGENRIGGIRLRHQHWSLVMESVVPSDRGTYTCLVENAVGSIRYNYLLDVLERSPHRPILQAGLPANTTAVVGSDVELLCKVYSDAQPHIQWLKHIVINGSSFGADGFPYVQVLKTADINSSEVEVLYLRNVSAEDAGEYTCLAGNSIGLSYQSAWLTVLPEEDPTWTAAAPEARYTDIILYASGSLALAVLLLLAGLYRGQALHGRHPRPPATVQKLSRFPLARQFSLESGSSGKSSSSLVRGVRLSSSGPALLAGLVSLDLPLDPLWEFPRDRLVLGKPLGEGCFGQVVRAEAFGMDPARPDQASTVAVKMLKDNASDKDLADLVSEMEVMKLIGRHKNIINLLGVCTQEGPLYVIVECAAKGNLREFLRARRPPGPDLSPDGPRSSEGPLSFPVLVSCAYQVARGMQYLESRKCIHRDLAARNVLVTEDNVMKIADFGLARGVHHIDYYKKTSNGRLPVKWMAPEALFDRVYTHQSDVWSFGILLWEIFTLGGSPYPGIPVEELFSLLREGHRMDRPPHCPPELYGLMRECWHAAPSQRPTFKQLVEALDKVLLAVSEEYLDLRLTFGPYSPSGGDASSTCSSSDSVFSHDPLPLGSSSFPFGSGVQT
Chain of FGFR1 (P11362 22-822): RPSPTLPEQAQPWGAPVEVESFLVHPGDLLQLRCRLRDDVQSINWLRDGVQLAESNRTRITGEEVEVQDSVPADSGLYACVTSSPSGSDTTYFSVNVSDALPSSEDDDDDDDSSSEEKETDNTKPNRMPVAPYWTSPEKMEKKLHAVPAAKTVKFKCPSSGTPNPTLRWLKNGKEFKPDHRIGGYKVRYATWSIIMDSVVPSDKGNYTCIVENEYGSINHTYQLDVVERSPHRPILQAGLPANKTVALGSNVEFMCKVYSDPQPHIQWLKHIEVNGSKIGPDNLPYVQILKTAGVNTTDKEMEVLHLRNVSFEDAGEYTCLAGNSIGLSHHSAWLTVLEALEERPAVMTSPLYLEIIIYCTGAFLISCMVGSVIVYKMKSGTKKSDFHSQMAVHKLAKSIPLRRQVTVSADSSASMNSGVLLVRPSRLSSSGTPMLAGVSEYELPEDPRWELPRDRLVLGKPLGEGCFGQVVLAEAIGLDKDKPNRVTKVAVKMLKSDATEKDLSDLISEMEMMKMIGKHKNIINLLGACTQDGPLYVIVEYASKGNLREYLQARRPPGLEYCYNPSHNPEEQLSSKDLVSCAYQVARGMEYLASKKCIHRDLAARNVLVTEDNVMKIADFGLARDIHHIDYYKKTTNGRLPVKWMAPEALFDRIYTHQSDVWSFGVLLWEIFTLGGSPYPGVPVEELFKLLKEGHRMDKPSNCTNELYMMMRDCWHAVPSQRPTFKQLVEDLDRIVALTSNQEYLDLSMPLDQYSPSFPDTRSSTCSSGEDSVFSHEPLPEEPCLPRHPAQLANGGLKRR
Chain of FGFR3 (P22607 23-806): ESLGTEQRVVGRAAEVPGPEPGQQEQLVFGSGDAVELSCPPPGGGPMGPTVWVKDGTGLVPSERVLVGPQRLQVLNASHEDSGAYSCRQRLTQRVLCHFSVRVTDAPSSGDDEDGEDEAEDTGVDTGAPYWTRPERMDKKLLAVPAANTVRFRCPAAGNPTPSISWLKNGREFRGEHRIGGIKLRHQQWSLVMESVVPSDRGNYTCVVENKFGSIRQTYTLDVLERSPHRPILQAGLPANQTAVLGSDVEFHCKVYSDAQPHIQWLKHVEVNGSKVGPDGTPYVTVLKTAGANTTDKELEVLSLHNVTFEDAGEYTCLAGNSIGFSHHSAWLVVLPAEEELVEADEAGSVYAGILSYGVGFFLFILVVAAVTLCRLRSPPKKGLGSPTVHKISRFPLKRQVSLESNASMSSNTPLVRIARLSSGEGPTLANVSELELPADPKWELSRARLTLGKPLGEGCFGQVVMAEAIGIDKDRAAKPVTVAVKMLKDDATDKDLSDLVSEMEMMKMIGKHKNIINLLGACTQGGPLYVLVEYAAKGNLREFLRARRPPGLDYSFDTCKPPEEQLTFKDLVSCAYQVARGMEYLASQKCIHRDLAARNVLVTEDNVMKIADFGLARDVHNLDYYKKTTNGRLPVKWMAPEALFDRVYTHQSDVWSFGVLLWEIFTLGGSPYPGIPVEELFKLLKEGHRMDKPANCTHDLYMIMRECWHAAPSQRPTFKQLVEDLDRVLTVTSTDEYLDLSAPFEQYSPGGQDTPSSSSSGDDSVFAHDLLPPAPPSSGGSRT
Chain of FGFR2 (P21802 22-821): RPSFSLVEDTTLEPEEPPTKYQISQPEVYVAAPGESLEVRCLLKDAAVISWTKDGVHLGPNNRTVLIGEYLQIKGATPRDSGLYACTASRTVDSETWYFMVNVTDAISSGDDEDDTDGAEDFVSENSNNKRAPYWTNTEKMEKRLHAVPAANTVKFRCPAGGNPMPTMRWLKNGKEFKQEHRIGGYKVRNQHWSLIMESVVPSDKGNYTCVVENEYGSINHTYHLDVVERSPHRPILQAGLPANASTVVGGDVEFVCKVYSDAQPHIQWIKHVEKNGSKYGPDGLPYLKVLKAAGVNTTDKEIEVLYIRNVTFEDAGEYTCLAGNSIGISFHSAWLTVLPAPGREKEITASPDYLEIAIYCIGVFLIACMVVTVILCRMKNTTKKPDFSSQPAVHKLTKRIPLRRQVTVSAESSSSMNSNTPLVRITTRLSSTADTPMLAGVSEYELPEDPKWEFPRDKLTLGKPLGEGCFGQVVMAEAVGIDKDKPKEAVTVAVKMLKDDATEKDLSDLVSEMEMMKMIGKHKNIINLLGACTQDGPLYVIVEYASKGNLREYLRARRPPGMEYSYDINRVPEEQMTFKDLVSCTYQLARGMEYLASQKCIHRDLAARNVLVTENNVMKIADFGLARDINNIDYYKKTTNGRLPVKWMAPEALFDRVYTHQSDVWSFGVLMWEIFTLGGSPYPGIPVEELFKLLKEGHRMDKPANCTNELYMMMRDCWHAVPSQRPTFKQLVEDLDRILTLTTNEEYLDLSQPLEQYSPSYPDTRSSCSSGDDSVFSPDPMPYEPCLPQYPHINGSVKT
Chain of FGFR3 (V555M) (P22607 23-806 V555M): as the sequence (P22607 23-806) above, with V533M counted along it

Structure (SMILES) | Kd [1] | Kd [2] | Kd [3] | Kd [4] | Kd [5]
COc1cc2[nH]nc(-c3ccc(N4CC(O)C4)nc3)c2cc1O[C@H](C)c1c(Cl)cnc(C)c1Cl [Example 208, 1-[5-[5-[(1R)-1-(3,5-dichloro-2-methyl-4-pyridyl)ethoxy]-6-methoxy-1H-indazol-3-yl]-2-pyridyl]azetidin-3-ol] | 20 to 100 nM | 1 to 20 nM | 1 to 20 nM | 1 to 20 nM | 1 to 20 nM
COC1(C)CN(c2ccc(-c3n[nH]c4ccc(O[C@H](C)c5c(Cl)cnc(C)c5Cl)cc34)cn2)C1 [Example 210, 5-[(1R)-1-(3,5-dichloro-2-methyl-4-pyridyl)ethoxy]-3-[6-(3-methoxy-3-methyl-azetidin-1-yl)-3-pyridyl]-1H-indazole] | 20 to 100 nM | 1 to 20 nM | 1 to 20 nM | 1 to 20 nM | 1 to 20 nM
COc1cc2[nH]nc(-c3ccc(N4CC5(COC5)C4)nc3)c2cc1O[C@H](C)c1c(Cl)cnc(C)c1Cl [Example 211, 6-[5-[5-[(1R)-1-(3,5-dichloro-2-methyl-4-pyridyl)ethoxy]-6-methoxy-1H-indazol-3-yl]-2-pyridyl]-2-oxa-6-azaspiro[3.3]heptane] | 1 to 20 nM | 1 to 20 nM | 1 to 20 nM | 1 to 20 nM | 1 to 20 nM
Cc1ncc(Cl)c([C@@H](C)Oc2ccc3[nH]nc(-c4ccc(N5CC6(CCC6)C5)nc4)c3c2)c1Cl [Example 212, 3-[6-(2-azaspiro[3.3]-heptan-2-yl)-3-pyridyl]-5-[(1R)-1-(3,5-dichloro-2-methyl-4-pyridyl)ethoxy]-1H-indazole] | > 300 nM | 100 to 300 nM | 20 to 100 nM | 1 to 20 nM | 100 to 300 nM
COc1cc2[nH]nc(-c3cnc(N4CC5CC(C4)N5CC(C)(C)O)c(C)c3)c2cc1O[C@H](C)c1c(C)cnnc1C [Example 214, 1-(3-(5-(5-((R)-1-(3,5-dimethylpyridazin-4-yl)ethoxy)-6-methoxy-1H-indazol-3-yl)-3-methylpyridin-2-yl)-3,6-diazabicyclo[3.1.1]heptan-6-yl)-2-methylpropan-2-ol] | 1 to 20 nM | 1 to 20 nM | 1 to 20 nM | 1 to 20 nM | 1 to 20 nM
Cc1ncc(Cl)c([C@@H](C)Oc2ccc3[nH]nc(-c4ccc(N5CC6(CCOC6)C5)nc4)c3c2)c1Cl [Example 216, 2-[5-[5-[(1R)-1-(3,5-dichloro-2-methyl-4-pyridyl)ethoxy]-1H-indazol-3-yl]-2-pyridyl]-6-oxa-2-azaspiro[3.4]octane] | 20 to 100 nM | 1 to 20 nM | 1 to 20 nM | 1 to 20 nM | 1 to 20 nM
Cc1cc(-c2n[nH]c3ccc(O[C@H](C)c4c(Cl)cnc(C)c4Cl)cc23)cnc1N1CC2(CCOC2)C1 [Example 217, 2-[5-[5-[(1R)-1-(3,5-dichloro-2-methyl-4-pyridyl)ethoxy]-1H-indazol-3-yl]-3-methyl-2-pyridyl]-6-oxa-2-azaspiro[3.4]octane] | 100 to 300 nM | 20 to 100 nM | 1 to 20 nM | 1 to 20 nM | 1 to 20 nM
COc1cc2[nH]nc(-c3cnc(N4CC5(COC5)C4)c(C#N)c3)c2cc1O[C@H](C)c1c(C)cnnc1C [Example 218, (R)-5-(5-(1-(3,5-dimethylpyridazin-4-yl)ethoxy)-6-methoxy-1H-indazol-3-yl)-2-(2-oxa-6-azaspiro[3.3]heptan-6-yl)nicotinonitrile] | 20 to 100 nM | 20 to 100 nM | 20 to 100 nM | 1 to 20 nM | 1 to 20 nM
COc1cc2[nH]nc(-c3cnc(N4CC5(COC5)C4)c(C)c3)c2cc1O[C@H](C)c1c(C)cnnc1C [Example 219, (R)-6-(5-(5-(1-(3,5-dimethylpyridazin-4-yl)ethoxy)-6-methoxy-1H-indazol-3-yl)-3-methylpyridin-2-yl)-2-oxa-6-azaspiro[3.3]heptane] | 20 to 100 nM | 1 to 20 nM | 1 to 20 nM | 1 to 20 nM | 1 to 20 nM
COc1cc2[nH]nc(-c3ccc(N4CCCC4)nc3)c2cc1O[C@H](C)c1c(Cl)cnc(C)c1Cl [Example 220, 5-[(1R)-1-(3,5-dichloro-2-methyl-4-pyridyl)ethoxy]-6-methoxy-3-(6-pyrrolidin-1-yl-3-pyridyl)-1H-indazole] | 20 to 100 nM | 20 to 100 nM | 1 to 20 nM | 1 to 20 nM | 1 to 20 nM
Cc1ncc(Cl)c([C@@H](C)Oc2ccc3[nH]nc(-c4ccc(N5CC(C)(O)C5)nc4)c3c2)c1Cl [Example 222, 1-[5-[5-[(1R)-1-(3,5-dichloro-2-methyl-4-pyridyl)ethoxy]-1H-indazol-3-yl]-2-pyridyl]-3-methyl-azetidin-3-ol] | 20 to 100 nM | 20 to 100 nM | 1 to 20 nM | 1 to 20 nM | 1 to 20 nM
C[C@@H](Oc1ccc2[nH]nc(-c3ccc(N4CC5(CN(CC(F)(F)F)C5)C4)nc3)c2c1)c1c(Cl)cncc1Cl [Example 224, (R)-5-(1-(3,5-dichloropyridin-4-yl)ethoxy)-3-(6-(6-(2,2,2-trifluoroethyl)-2,6-diazaspiro[3.3]heptan-2-yl)pyridin-3-yl)-1H-indazole] | 1 to 20 nM | 20 to 100 nM | 1 to 20 nM | 1 to 20 nM | 1 to 20 nM
Cc1ncc(Cl)c([C@@H](C)Oc2ccc3[nH]nc(-c4ccc(N5CCN6C(=O)CCC6C5)nc4)c3c2)c1Cl (stereo partly drawn) [Example 225, 2-[5-[5-[(1R)-1-(3,5-dichloro-2-methyl-4-pyridyl)ethoxy]-1H-indazol-3-yl]-2-pyridyl]-1,3,4,7,8,8a-hexahydropyrrolo[1,2-a]pyrazin-6-one] | 20 to 100 nM | 1 to 20 nM | 1 to 20 nM | 1 to 20 nM | 1 to 20 nM
Cc1ncc(Cl)c([C@@H](C)Oc2ccc3[nH]nc(-c4ccc(N5CC6(CCCO6)C5)nc4)c3c2)c1Cl [Example 226, 2-[5-[5-[(1R)-1-(3,5-dichloro-2-methyl-4-pyridyl)ethoxy]-1H-indazol-3-yl]-2-pyridyl]-5-oxa-2-azaspiro[3.4]octane] | 20 to 100 nM | 20 to 100 nM | 1 to 20 nM | 1 to 20 nM | 20 to 100 nM
Cc1ncc(Cl)c([C@@H](C)Oc2ccc3[nH]nc(-c4ccc(N5CC6(CC(O)C6)C5)nc4)c3c2)c1Cl [Example 227, 2-[5-[5-[(1R)-1-(3,5-dichloro-2-methyl-4-pyridyl)ethoxy]-1H-indazol-3-yl]-2-pyridyl]-2-azaspiro[3.3]heptan-6-ol] | 20 to 100 nM | 1 to 20 nM | 1 to 20 nM | 1 to 20 nM | 1 to 20 nM
COc1cc2[nH]nc(-c3ccc(N4CCN5C(=O)NCC5C4)nc3)c2cc1O[C@H](C)c1c(C)cnnc1C (stereo partly drawn) [Example 228, 7-(5-(5-((R)-1-(3,5-dimethylpyridazin-4-yl)ethoxy)-6-methoxy-1H-indazol-3-yl)pyridin-2-yl)hexahydroimidazo[1,5-a]pyrazin-3(2H)-one] | 1 to 20 nM | 1 to 20 nM | 1 to 20 nM | 1 to 20 nM | 1 to 20 nM
C[C@@H](Oc1ccc2[nH]nc(-c3ccc(N4CC5(COC5)C4)nc3)c2c1)c1c(Cl)cnnc1Cl [Example 229, (R)-6-(5-(5-(1-(3,5-dichloropyridazin-4-yl)ethoxy)-1H-indazol-3-yl)pyridin-2-yl)-2-oxa-6-azaspiro[3.3]heptane] | > 300 nM | 100 to 300 nM | 20 to 100 nM | 20 to 100 nM | > 300 nM
C[C@@H](Oc1ccc2[nH]nc(-c3ccc(N4CC5(CN(CC(F)F)C5)C4)nc3)c2c1)c1c(Cl)cncc1Cl [Example 230, (R)-5-(1-(3,5-dichloropyridin-4-yl)ethoxy)-3-(6-(6-(2,2-difluoroethyl)-2,6-diazaspiro[3.3]heptan-2-yl)pyridin-3-yl)-1H-indazole] | 1 to 20 nM | 1 to 20 nM | 1 to 20 nM | 1 to 20 nM | 1 to 20 nM
Cc1cc(-c2n[nH]c3ccc(O[C@H](C)c4c(C)cnnc4C)cc23)cnc1N1CCN2C(=O)NCC2C1 (stereo partly drawn) [Example 231, 7-(5-(5-((R)-1-(3,5-dimethylpyridazin-4-yl)ethoxy)-1H-indazol-3-yl)-3-methylpyridin-2-yl)hexahydroimidazo[1,5-a]pyrazin-3(2H)-one] | 20 to 100 nM | 1 to 20 nM | 1 to 20 nM | 1 to 20 nM | 1 to 20 nM
Cc1ncc(Cl)c([C@@H](C)Oc2ccc3[nH]nc(-c4ccc(N5CCC[C@@H]5CO)nc4)c3c2)c1Cl [Example 232, [(2R)-1-[5-[5-[(1R)-1-(3,5-dichloro-2-methyl-4-pyridyl)ethoxy]-1H-indazol-3-yl]-2-pyridyl]pyrrolidin-2-yl]methanol] | 20 to 100 nM | 20 to 100 nM | 1 to 20 nM | 1 to 20 nM | 1 to 20 nM
C[C@@H](Oc1ccc2[nH]nc(-c3ccc(N4CC5(C4)CN(S(C)(=O)=O)C5)nc3)c2c1)c1c(Cl)cnnc1Cl [Example 233, (R)-5-(1-(3,5-dichloropyridazin-4-yl)ethoxy)-3-(6-(6-(methylsulfonyl)-2,6-diazaspiro[3.3]heptan-2-yl)pyridin-3-yl)-1H-indazole] | > 300 nM | 100 to 300 nM | 20 to 100 nM | 20 to 100 nM | > 300 nM
Cc1cc(-c2n[nH]c3ccc(O[C@H](C)c4c(Cl)cnc(C)c4Cl)cc23)cnc1N1CC(CO)(CO)C1 [Example 234, [1-[5-[5-[(1R)-1-(3,5-dichloro-2-methyl-4-pyridyl)ethoxy]-1H-indazol-3-yl]-3-methyl-2-pyridyl]-3-(hydroxymethyl)azetidin-3-yl]methanol] | 100 to 300 nM | 100 to 300 nM | 1 to 20 nM | 1 to 20 nM | 1 to 20 nM
